Entries after “also recorded” stand apart in the source; their conditions may differ.

A short description of data set [1]: Stability of temozolomide in culture medium. In kind it is physicochemical.
For data set [2], the system named is intracranial Mel57-luc tumor xenografts. As to the kind of experiment: Efficacy against intracranial Mel57-luc tumor xenografts. In kind it is in vivo, nude mice. How it is done:
Intracranial Mel57-luc (luciferase transfected subline) tumor xenografts in wild-type nude mice (WT) and mdr1ab knockout nude mice (MDR) were established according to the protocol below (see Kemper et al, Eur J Cancer 42:3294-3303, 2006).
The Mel57 cell line (University Medical Centre, Nijmegen, The Netherlands) is a human melanoma cell line and was cultured in MEM (Life Technologies Inc., Breda, The Netherlands) supplemented with 10% foetal calf serum, non-essential amino acids, streptomycin, penicillin and sodium pyruvate (all Life Technologies), and incubated at 37° C. and 5% CO2 in humidified air. The cell line was further transfected by standard protocols with lipofectamine using a pBS vector containing a β-actin driven luciferase gene coupled via an internal ribosome […] to GFP. After expansion, GFP bright cells were sorted to single cells by FACS, expanded and sublines tested for luciferase expression by an in vitro bioluminescence assay (Promega, Benelux BV, Leiden, The Netherlands). Three to five sublines showing the highest luminescence activity were tested in vivo for tumour take and intracranial growth behaviour. To retrieve tumour cells for injection, the cell culture was trypsinised (trypsin 0.05%; EDTA 0.02%, Life Technologies), washed two times with Hanks Balanced Saline Solution (HBSS, Life Technologies Inc.), counted and resuspended in an appropriate volume of HBSS. The single cell suspension was kept on ice until injection. […]
Mel57-luc cells (100,000 cells/2 μl) were injected stereotactically in the brain as described in detail in Kemper et al^14. […] The amount of bioluminescence in each animal was calculated relative to the first measurement when therapy was initiated (arbitrarily set at 100%) and was log converted prior to data analysis. Tumor volume was measured by bioluminescence activity (see Kemper et al, Eur J Cancer 42:3294-3303, 2006).

The target of the next data set is T1, murine Bcrp1 (Mus musculus, UniProt Q7TMS5).
T1 construct: expressed in transfected cells; host or cells: MDCKII (canine kidney) cells transduced with murine Bcrp1
T1 sequence (Q7TMS5 1-657): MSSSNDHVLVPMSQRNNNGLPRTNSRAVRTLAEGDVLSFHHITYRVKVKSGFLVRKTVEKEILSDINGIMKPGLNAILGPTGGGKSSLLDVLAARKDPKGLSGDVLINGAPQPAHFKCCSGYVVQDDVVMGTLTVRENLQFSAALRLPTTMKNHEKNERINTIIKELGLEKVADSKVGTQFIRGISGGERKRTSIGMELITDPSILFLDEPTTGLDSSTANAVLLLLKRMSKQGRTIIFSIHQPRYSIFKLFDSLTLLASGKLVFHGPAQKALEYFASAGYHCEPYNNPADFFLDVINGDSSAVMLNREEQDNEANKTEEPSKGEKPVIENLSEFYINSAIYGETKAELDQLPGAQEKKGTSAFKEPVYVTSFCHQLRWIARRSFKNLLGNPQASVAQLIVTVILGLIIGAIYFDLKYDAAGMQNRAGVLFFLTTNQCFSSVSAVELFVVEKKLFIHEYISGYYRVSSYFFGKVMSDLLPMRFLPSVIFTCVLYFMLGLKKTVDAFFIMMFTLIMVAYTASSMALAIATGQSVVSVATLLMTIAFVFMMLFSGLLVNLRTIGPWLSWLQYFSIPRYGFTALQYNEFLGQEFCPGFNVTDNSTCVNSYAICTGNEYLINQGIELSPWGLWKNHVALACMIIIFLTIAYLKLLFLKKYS
In words: Transwell transport of temozolomide, MDCKII-Bcrp1 cells, without or with inhibitors. In kind it is in vitro ADME. The note with it: 40 μg/ml, MDCK-Bcrp1 versus MDCK parent, zosuquidar 5 μM. How it is done: The parental LLC pig-kidney (PK1) cell line and sublines transduced with murine Mdr1a or human MDR1 (12) and the parental Madine Darby Canine Kidney (MDCK) and murine Bcrp1 or human BCRP transduced sublines (13) were seeded on Transwell microporous polycarbonate membrane filters (3.0 μm pore size, 24 mm diameter; Costar Corning, N.Y., USA) at a density of 1×10^6 cells per well in 2 ml of MEM medium (Invitrogen Corporation, Carlsbad, Calif.) containing 10% v/v fetal calf serum. Cells were incubated at 37° C. in 5% CO2 for three days with one medium replacement after the first day. Two hours before the start of the experiment the medium in both compartments was replaced with 2 ml of OptiMEM medium (InVitrogen Corp.). At the start of the experiment the medium in the apical or basolateral compartment was replaced with 2 ml of freshly prepared OptiMEM medium containing 40 μg/ml of temozolomide. […] Zosuquidar (LY335979, 5 μM) was always added to the medium when doing experiments with MDCK cell lines to inhibit endogenous canine P-gp. Samples of 50 μl were collected every 30 min, for up to 2 h after start of the experiment. Because temozolomide is instable in medium at 37° C., we replaced one ml of the donor compartment by a freshly prepared aliquot every 30 min. [^3H]-inulin (approximately 7 kBq per well) was added to the same compartment as temozolomide to check the integrity of the cell layer. Wells showing a leakage of more than 1.5% per hour were excluded.
First, we took samples every 30 min for up to 2 h instead of every hour for up to 4 h. Secondly, to maintain adequate temozolomide levels at the donor side throughout the experiment we replaced 1 ml of the 2 ml of medium at the donor side of the transwell at each sampling time by 1 ml of a freshly prepared temozolomide solution in medium.

In turn, `Cn1nnc2c(C(N)=O)ncn2c1=O` [temozolomide, 8-carbamoyl-3-methyl-[3H]-imidazo[5,1-d]-1,2,3,5-tetrazin-4-one] returned a half-life in data set [1] (culture medium at 37° C.) of roughly 30 min. The degradation entry in data set [1] (pH 7.4, in 30 min) is on record as “about 50%”. The “response to temozolomide, P-gp (Mdr1ab) knockout versus wild-type nude mice” value in data set [2] (oral 100 mg/kg for 5 consecutive days, bioluminescence, 100 mg/kg) is listed as “greater reduction in tumor volume; also recorded: respond better”. The “difference in efficacy, Bcrp1/Mdr1ab knockout versus wild-type nude mice” value in data set [2] (oral 100 mg/kg/day×5 from day 7, bioluminescence) is recorded as “more pronounced”. Further, the “transport of temozolomide by murine Bcrp1” value is given as “clear vectorial transport” at murine Bcrp1 and “evident” at murine Bcrp1 (listed as Temozolomide).

(Values after US20090170880A1, “Methods and Means for the Treatment of Cancer” (priority 2007, published 2009).)
